Activity calls are given as the source filed them. The calls are words filed in the database; no cut-off is given here. Positions of bridges follow the written chain, without caps; N, C: chain ends. Non-standard residues stand in square brackets, D forms with d. Residues, ends and D or L forms follow the SMILES beside them. ξ: configuration not given here. *: point of attachment. X1 = COCCOCCOCCOCCOCCOCCOCCC(=O)*; NMeQ = CN[C@@H](CCC(N)=O)C(=O)O; NMeN = CN[C@@H](CC(N)=O)C(=O)O; X2 = COCCOCCOCCOCCOCCC(=O)*; NMeC = CN[C@@H](CS)C(=O)O; NMeS = CN[C@@H](CO)C(=O)O; Heptanoyl = CCCCCCC(=O)*; Orn = NCCC[C@H](N)C(=O)O; ξNMeM = CNC(CCSC)C(=O)O; Pentanoyl = CCCCC(=O)*; ξM = CSCCC(N)C(=O)O
Tests used:
[1] = system: RAW264.7; test: Antiinflammatory activity in LPS-induced mouse RAW264.7 cells assessed as inhibition of IL-1beta expression at 1 microg/ml preincubated with compound for 24 hrs followed by LPS addition for 6 hrs by ELISA method; assay type: functional, cell-based; conditions: dose 1.0 µg/ml, time 30.0 hrs
[2] = system: RAW264.7; test: Antiinflammatory activity in LPS-induced mouse RAW264.7 cells assessed as inhibition of NO generation at 1 microg/ml preincubated with compound for 24 hrs followed by LPS addition for 6 hrs by DAF-FM diacetate probe based analysis; assay type: functional, cell-based; conditions: dose 1.0 µg/ml
[3] = Cytotoxicity against mouse RAW264.7 cells assessed as cell viability at 1 microg/ml measured after 24 hrs by CCK-8 assay; assay type: toxicity, cell-based; conditions: at 1 µg/mL, read-out: Activity
[4] = system: RAW264.7; test: Antiinflammatory activity in LPS-induced mouse RAW264.7 cells assessed as inhibition of TNF-alpha expression at 1 microg/ml preincubated with compound for 24 hrs followed by LPS addition for 6 hrs by ELISA method; assay type: functional, cell-based; conditions: dose 1.0 µg/ml, time 30.0 hrs
[5] = system: RAW264.7; test: Antiinflammatory activity in LPS-induced mouse RAW264.7 cells assessed as inhibition of NO expression at 1 microg/ml preincubated with compound for 24 hrs followed by LPS addition for 6 hrs by DAF-FM diacetate probe based analysis; assay type: functional, cell-based; conditions: dose 1.0 µg/ml, time 30.0 hrs
[6] = system: Mus musculus; test: Anti-inflammatory activity against collagenase-induced osteoarthritis C57BL/6J mouse model assessed as improvement in cartilage thickness at 1 mg/kg, ip measured on day 14 by H and E staining based analysis; assay type: functional, organism-based; conditions: time 14.0 day
[7] = system: RAW264.7; test: Antiinflammatory activity in LPS-induced mouse RAW264.7 cells assessed as […] in IL-1beta expression at 1 microg/ml preincubated with compound for 24 hrs followed by LPS addition for 6 hrs by ELISA method; assay type: functional, cell-based; conditions: dose 1.0 µg/ml, time 30.0 hrs
[8] = system: RAW264.7; test: Antiinflammatory activity in LPS-induced mouse RAW264.7 cells assessed as effect on IL-1beta level at 1 microg/ml preincubated with compound for 24 hrs followed by LPS addition for 6 hrs by ELISA method; assay type: functional, cell-based; conditions: dose 1.0 µg/ml, time 30.0 hrs
[9] = system: RAW264.7; test: Antiinflammatory activity in LPS-induced mouse RAW264.7 cells assessed as effect on TNF-alpha level at 1 microg/ml preincubated with compound for 24 hrs followed by LPS addition for 6 hrs by ELISA method; assay type: functional, cell-based; conditions: dose 1.0 µg/ml, time 30.0 hrs
[10] = system: RAW264.7; test: Antiinflammatory activity in LPS-induced mouse RAW264.7 cells assessed as effect on NO level at 1 microg/ml preincubated with compound for 24 hrs followed by LPS addition for 6 hrs by DAF-FM diacetate probe based analysis; assay type: functional, cell-based; conditions: dose 1.0 µg/ml, time 30.0 hrs
[11] = system: RAW264.7; test: Antiinflammatory activity in LPS-induced mouse RAW264.7 cells assessed as reduction in IL-1beta activity at 1 microg/ml preincubated with compound for 24 hrs followed by LPS addition for 6 hrs by ELISA method; assay type: functional, cell-based; conditions: dose 1.0 µg/ml, time 30.0 hrs

CSCC[C@H](N)C(=O)N[C@H]1CCCCNC(=O)CC[C@@H](C(=O)N[C@@H](CO)C(N)=O)NC(=O)[C@H](CS)NC1=O (H-MKCES-NH2; lactam 2-4)
Activity [1]: Active
Activity [2]: inactive
viability at 24 h, 1 microg/ml [3]: ~80%

CSCC[C@@H](N)C(=O)N[C@@H](CCC(N)=O)C(=O)N[C@@H](CS)C(=O)N[C@@H](CC(N)=O)C(=O)N[C@@H](CO)C(N)=O
Activity [1]: Active
Activity [4]: Active
Activity [5]: Active
viability at 24 h, 1 microg/ml [3]: 86.8%
Activity [6]: Active

CSCC[C@H](N)C(=O)N[C@H]1CCC(=O)NCCC[C@@H](C(=O)N[C@@H](CO)C(N)=O)NC(=O)[C@H](CS)NC1=O (H-MEC[Orn]S-NH2; lactam 2-4)
Activity [1]: inactive
viability at 24 h, 1 microg/ml [3]: ~80%

COCCOCCOCCOCCOCCOCCOCCSC[C@@H](NC(=O)[C@@H](CCC(N)=O)NC(=O)[C@H](N)CCSC)C(=O)N[C@H](CC(N)=O)C(=O)N[C@H](CO)C(N)=O
Activity [7]: Active
Activity [4]: Active
Activity [2]: Active
viability at 24 h, 1 microg/ml [3]: 88.8%
Activity [6]: Active

COCCOCCOCCOCCOCCC(=O)N[C@@H](CCSC)C(=O)N[C@@H](CCC(N)=O)C(=O)N[C@@H](CS)C(=O)N[C@@H](CC(N)=O)C(=O)N[C@@H](CO)C(N)=O (X2-MQCNS-NH2)
Activity [8]: Active
Activity [9]: Active
Activity [10]: Active
Activity [11]: Active
viability at 24 h, 1 microg/ml [3]: ~80%

CSCC[C@@H](N)C(=O)N[C@H]1CC(=O)NCCCC[C@@H](C(=O)N[C@@H](CO)C(N)=O)NC(=O)[C@H](CS)NC1=O
Activity [1]: inactive
viability at 24 h, 1 microg/ml [3]: ~80%

CSCCC(N)C(=O)N[C@@H](CCC(N)=O)C(=O)N(C)[C@@H](CS)C(=O)N[C@@H](CC(N)=O)C(=O)N[C@@H](CO)C(N)=O (some centres not stated) (H-[ξM]Q[NMeC]NS-NH2)
Activity [7]: Active
Activity [4]: Active
Activity [2]: inactive
viability at 24 h, 1 microg/ml [3]: ~80%

CSCC[C@H](N)C(=O)N[C@@H](CCC(N)=O)C(=O)N[C@@H](CS)C(=O)N[C@@H](CC(N)=O)C(=O)N[C@H](CO)C(N)=O
Activity [7]: inactive
Activity [4]: Active
Activity [5]: Active
viability at 24 h, 1 microg/ml [3]: ~80%

COCCOCCOCCSC[C@@H](NC(=O)[C@@H](CCC(N)=O)NC(=O)[C@H](N)CCSC)C(=O)N[C@H](CC(N)=O)C(=O)N[C@H](CO)C(N)=O
Activity [7]: Active
Activity [4]: Active
viability at 24 h, 1 microg/ml [3]: ~80%

CSCC[C@H](N)C(=O)N[C@H]1CCC(=O)NCCCC[C@@H](C(=O)N[C@@H](CO)C(N)=O)NC(=O)[C@H](CS)NC1=O (H-MECKS-NH2; lactam 2-4)
Activity [1]: inactive
viability at 24 h, 1 microg/ml [3]: ~80%

CSCC[C@H](N)C(=O)N[C@H]1CCCCNC(=O)C[C@@H](C(=O)N[C@@H](CO)C(N)=O)NC(=O)[C@H](CS)NC1=O (H-MKCDS-NH2; lactam 2-4)
Activity [1]: Active
Activity [4]: inactive
viability at 24 h, 1 microg/ml [3]: ~80%

CSCC[C@H](N)C(=O)N[C@H]1CCCNC(=O)C[C@@H](C(=O)N[C@@H](CO)C(N)=O)NC(=O)[C@H](CS)NC1=O (H-M[Orn]CDS-NH2; lactam 2-4)
Activity [1]: Active
viability at 24 h, 1 microg/ml [3]: ~80%

COCCOCCOCCOCCOCCOCCOCCC(=O)N[C@@H](CCSC)C(=O)N[C@@H](CCC(N)=O)C(=O)N[C@@H](CS)C(=O)N[C@@H](CC(N)=O)C(=O)N[C@@H](CO)C(N)=O (X1-MQCNS-NH2)
Activity [8]: Active
Activity [9]: Active
Activity [10]: Active
Activity [1]: Active
viability at 24 h, 1 microg/ml [3]: ~80%

CSCC[C@H](N)C(=O)N[C@H]1CCCNC(=O)CC[C@@H](C(=O)N[C@@H](CO)C(N)=O)NC(=O)[C@H](CS)NC1=O (H-M[Orn]CES-NH2; lactam 2-4)
Activity [1]: Active
viability at 24 h, 1 microg/ml [3]: 81.9%
Activity [6]: Active

CSCC[C@@H](N)C(=O)N[C@H]1CC(=O)NCCC[C@@H](C(=O)N[C@@H](CO)C(N)=O)NC(=O)[C@H](CS)NC1=O
Activity [1]: inactive
viability at 24 h, 1 microg/ml [3]: ~80%

CSCCC(N)C(=O)N[C@@H](CCC(N)=O)C(=O)N[C@@H](CS)C(=O)N(C)[C@@H](CC(N)=O)C(=O)N[C@@H](CO)C(N)=O (some centres not stated) (H-[ξM]QC[NMeN]S-NH2)
Activity [7]: Active
Activity [4]: Active
Activity [2]: inactive
viability at 24 h, 1 microg/ml [3]: ~80%

CCCCCCC(=O)N[C@@H](CCSC)C(=O)N[C@@H](CCC(N)=O)C(=O)N[C@@H](CS)C(=O)N[C@@H](CC(N)=O)C(=O)N[C@@H](CO)C(N)=O (Heptanoyl-MQCNS-NH2)
Activity [8]: Active
Activity [9]: Active
Activity [10]: Active
Activity [1]: Active
viability at 24 h, 1 microg/ml [3]: ~80%

CSCCC(N)C(=O)N[C@@H](CCC(N)=O)C(=O)N[C@@H](CS)C(=O)N[C@@H](CC(N)=O)C(=O)N(C)[C@@H](CO)C(N)=O (some centres not stated) (H-[ξM]QCN[NMeS]-NH2)
Activity [7]: Active
Activity [4]: Active
Activity [2]: inactive
viability at 24 h, 1 microg/ml [3]: ~80%

CSCC[C@H](NC(C)=O)C(=O)N[C@@H](CCC(N)=O)C(=O)N[C@@H](CS)C(=O)N[C@@H](CC(N)=O)C(=O)N[C@@H](CO)C(N)=O (Ac-MQCNS-NH2)
Activity [8]: Active
Activity [9]: Active
Activity [10]: Active
Activity [1]: Active
viability at 24 h, 1 microg/ml [3]: ~80%

CSCC[C@H](N)C(=O)N[C@@H](CCC(N)=O)C(=O)N[C@H](CS)C(=O)N[C@@H](CC(N)=O)C(=O)N[C@@H](CO)C(N)=O
Activity [1]: Active
Activity [4]: Active
Activity [5]: Active
viability at 24 h, 1 microg/ml [3]: ~80%

CSCC[C@H](N)C(=O)N[C@H](CCC(N)=O)C(=O)N[C@@H](CS)C(=O)N[C@@H](CC(N)=O)C(=O)N[C@@H](CO)C(N)=O
Activity [7]: inactive
Activity [4]: Active
Activity [5]: Active
viability at 24 h, 1 microg/ml [3]: ~80%

CNC(CCSC)C(=O)N[C@@H](CCC(N)=O)C(=O)N[C@@H](CS)C(=O)N[C@@H](CC(N)=O)C(=O)N[C@@H](CO)C(N)=O (some centres not stated) (H-[ξNMeM]QCNS-NH2)
Activity [7]: Active
Activity [4]: Active
Activity [2]: inactive
viability at 24 h, 1 microg/ml [3]: ~80%

CSCCC(N)C(=O)N(C)[C@@H](CCC(N)=O)C(=O)N[C@@H](CS)C(=O)N[C@@H](CC(N)=O)C(=O)N[C@@H](CO)C(N)=O (some centres not stated) (H-[ξM][NMeQ]CNS-NH2)
Activity [7]: Active
Activity [4]: Active
Activity [2]: Active
viability at 24 h, 1 microg/ml [3]: 82.9%
Activity [6]: Active

CCCCC(=O)N[C@@H](CCSC)C(=O)N[C@@H](CCC(N)=O)C(=O)N[C@@H](CS)C(=O)N[C@@H](CC(N)=O)C(=O)N[C@@H](CO)C(N)=O (Pentanoyl-MQCNS-NH2)
Activity [8]: Active
Activity [9]: Active
Activity [10]: Active
Activity [1]: Active
viability at 24 h, 1 microg/ml [3]: ~80%

COCCOCCOCCOCCOCCSC[C@@H](NC(=O)[C@@H](CCC(N)=O)NC(=O)[C@H](N)CCSC)C(=O)N[C@H](CC(N)=O)C(=O)N[C@H](CO)C(N)=O
Activity [7]: Active
Activity [4]: Active
viability at 24 h, 1 microg/ml [3]: ~80%

CSCC[C@H](N)C(=O)N[C@@H](CCC(N)=O)C(=O)N[C@@H](CS)C(=O)N[C@H](CC(N)=O)C(=O)N[C@@H](CO)C(N)=O
Activity [7]: inactive
Activity [4]: Active
Activity [5]: Active
viability at 24 h, 1 microg/ml [3]: ~80%

Source: ChEMBL document CHEMBL6121023, “Discovery of proteolytically stable monocyte locomotion inhibitory factor peptide through systematic structural optimization” (Eur J Med Chem, 2025)
